# Data from article PMC3989888 (Virology, 2014).
# Where two headings read alike, the source gives them in different places.
# Assays:
# CD4 T cells (PBMC) [1] = assay type: cell-based, human (HLA-DR1 children)
# CD4 T cells (PBMC) [2] = assay: Ex vivo class II tetramer staining and phenotyping of PBMC from adults; assay type: cell-based, human (DRB1*0101 healthy adults); conditions: for #Tet+/6.0×10^5 CD4+ T cells: ex vivo fresh PBMC, tetramer of the peptide; for % α4β7(+) CCR9(+) / % α4β7(+) CCR9(−) / % α4β7(−) CCR9(+) / % α4β7(−) CCR9(−): of antigen experienced tetramer+ CD4 T cells; for % Antigen experienced T cells: tetramer+ CD4 T cells, CD62L−CD45RA+/− and CD62L+CD45RA−
sequence,measurement,setting,value
RVEYHFLSPYVSRKESP [TRF],Tetramer+ cells with phenotype of antigen-experienced cells,"CD4 T cells (PBMC) [1]; both groups of children (vaccinated and placebo), data not shown",0–30%
same,Frequency of tetramer stained antigen experienced CD4 T cells,CD4 T cells (PBMC) [1]; placebo recipient children (n = 3),<0.0001–0.003%
same,Frequency of tetramer stained antigen experienced CD4 T cells,"CD4 T cells (PBMC) [1]; vaccinated children (n = 3), two weeks after second dose of RIX4414",<0.0001–0.01%
same,#Tet+/6.0×10^5 CD4+ T cells,CD4 T cells (PBMC) [2]; HA-02,8 /6.0×10^5 CD4^+ T cells
same,% α4β7(+) CCR9(+),CD4 T cells (PBMC) [2]; HA-02,33.3%
same,% α4β7(+) CCR9(−),CD4 T cells (PBMC) [2]; HA-02,33.3%
same,% α4β7(−) CCR9(+),CD4 T cells (PBMC) [2]; HA-02,0%
same,% α4β7(−) CCR9(−),CD4 T cells (PBMC) [2]; HA-02,33.3%
same,% Antigen experienced T cells,CD4 T cells (PBMC) [2]; HA-02,54.5%
same,#Tet+/6.0×10^5 CD4+ T cells,CD4 T cells (PBMC) [2]; HA-15,4 /6.0×10^5 CD4^+ T cells
same,% Antigen experienced T cells,CD4 T cells (PBMC) [2]; HA-15,0%
same,#Tet+/6.0×10^5 CD4+ T cells,CD4 T cells (PBMC) [2]; HA-19,10 /6.0×10^5 CD4^+ T cells
same,% α4β7(+) CCR9(+),CD4 T cells (PBMC) [2]; HA-19,33.3%
same,% α4β7(+) CCR9(−),CD4 T cells (PBMC) [2]; HA-19,8.33%
same,% α4β7(−) CCR9(+),CD4 T cells (PBMC) [2]; HA-19,25%
same,% α4β7(−) CCR9(−),CD4 T cells (PBMC) [2]; HA-19,33.3%
same,% Antigen experienced T cells,CD4 T cells (PBMC) [2]; HA-19,85.7%
same,#Tet+/6.0×10^5 CD4+ T cells,CD4 T cells (PBMC) [2]; HA-23,8 /6.0×10^5 CD4^+ T cells
same,% α4β7(+) CCR9(+),CD4 T cells (PBMC) [2]; HA-23,25%
same,% α4β7(+) CCR9(−),CD4 T cells (PBMC) [2]; HA-23,25%
same,% α4β7(−) CCR9(+),CD4 T cells (PBMC) [2]; HA-23,0%
same,% α4β7(−) CCR9(−),CD4 T cells (PBMC) [2]; HA-23,50%
same,% Antigen experienced T cells,CD4 T cells (PBMC) [2]; HA-23,57.1%
same,#Tet+/6.0×10^5 CD4+ T cells,CD4 T cells (PBMC) [2]; HA-29,14 /6.0×10^5 CD4^+ T cells
same,% α4β7(+) CCR9(+),CD4 T cells (PBMC) [2]; HA-29,50%
same,% α4β7(+) CCR9(−),CD4 T cells (PBMC) [2]; HA-29,0%
same,% α4β7(−) CCR9(+),CD4 T cells (PBMC) [2]; HA-29,0%
same,% α4β7(−) CCR9(−),CD4 T cells (PBMC) [2]; HA-29,50%
same,% Antigen experienced T cells,CD4 T cells (PBMC) [2]; HA-29,50%
same,#Tet+/6.0×10^5 CD4+ T cells,CD4 T cells (PBMC) [2]; HA-41,3 /6.0×10^5 CD4^+ T cells
same,% α4β7(+) CCR9(+),CD4 T cells (PBMC) [2]; HA-41,0%
same,% α4β7(+) CCR9(−),CD4 T cells (PBMC) [2]; HA-41,33.3%
same,% α4β7(−) CCR9(+),CD4 T cells (PBMC) [2]; HA-41,0%
same,% α4β7(−) CCR9(−),CD4 T cells (PBMC) [2]; HA-41,66.7%
same,% Antigen experienced T cells,CD4 T cells (PBMC) [2]; HA-41,100%
same,#Tet+/6.0×10^5 CD4+ T cells,CD4 T cells (PBMC) [2]; HA-51,98 /6.0×10^5 CD4^+ T cells
same,% α4β7(+) CCR9(+),CD4 T cells (PBMC) [2]; HA-51,20.7%
same,% α4β7(+) CCR9(−),CD4 T cells (PBMC) [2]; HA-51,44.8%
same,% α4β7(−) CCR9(+),CD4 T cells (PBMC) [2]; HA-51,6.9%
same,% α4β7(−) CCR9(−),CD4 T cells (PBMC) [2]; HA-51,27.6%
same,% Antigen experienced T cells,CD4 T cells (PBMC) [2]; HA-51,36.7%
same,#Tet+/6.0×10^5 CD4+ T cells,CD4 T cells (PBMC) [2]; HA-52,72 /6.0×10^5 CD4^+ T cells
same,% α4β7(+) CCR9(+),CD4 T cells (PBMC) [2]; HA-52,0%
same,% α4β7(+) CCR9(−),CD4 T cells (PBMC) [2]; HA-52,66.7%
same,% α4β7(−) CCR9(+),CD4 T cells (PBMC) [2]; HA-52,0%
same,% α4β7(−) CCR9(−),CD4 T cells (PBMC) [2]; HA-52,33.3%
same,% Antigen experienced T cells,CD4 T cells (PBMC) [2]; HA-52,27.3%
